Values joined by “and” are separate entries in the source; they are usually repeats but may differ in a detail not shown here. Equal entries are not always repeated.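 Step 1: Grow cells in 96-well plates. Step 2: Expose to compound for 48 hours at 5 concentrations. Step 3: Interpolate endpoints linearly; if unreached, use highest concentration. At the GI50, growth is halved. TGI marks complete inhibition of growth.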

In the experiment the test system is MDA-MB-468 breast. The experiment is described as follows: NCI tumour cell line growth inhibition, 48 h.
As to `COc1ccc(-c2nnc(SCc3ccc(O)c4ncccc34)n2-c2ccccc2)cc1`, the GI50 was 0.81 µM and the TGI was 6.57 µM.

Regarding `O=c1c2ccccc2n(C[C@H]2CO2)c2ccccc12`, the GI50 is 1.83 µM and the TGI was found to be 3.81 µM.

Consider `Nc1c(Br)cc(Br)c2c1[nH]c(=O)c1ccccc12`, for which the GI50 is 0.55 µM and the TGI was determined as 8.9 µM.

With `O=C1c2cc3c(cc2-c2c1c1ccc(Cl)cc1c(=O)n2CCCNCCO)OCO3`, the GI50 is 0.085 µM and the TGI worked out at 2.35 µM.

As to `COC(=O)c1c2c(c(C)[n+]([O-])c1C)C(=O)C=C(NCc1ccc(F)c(Cl)c1)C2=O`, the GI50 is 0.2 µM and the TGI was determined as 0.712 µM.

As to `C/C(=N/Nc1nc2ccccc2n1C)c1ccccn1`, the GI50 was 0.0319 µM and the TGI came out at 0.239 µM.

Regarding `Cc1ccccc1N=Nc1ccc(NC(=O)c2ccnn2C)c(C)c1`, the GI50 was 3.84 µM and the TGI is 70.6 µM.

As to `COc1ncc(-c2ccc3nccc(-c4ccnnc4)c3c2)cc1NS(=O)(=O)c1ccc(F)cc1F`, the GI50 was 0.0027 µM and < 0.01 µM; the TGI is 0.0266 µM and 0.0158 µM.

As for `C/C(=N\Nc1cc(C)c2cc(C)ccc2n1)c1ccccn1`, the GI50 is 0.0654 µM and the TGI is 0.318 µM.

For the compound `CCc1c(C#N)c(S[C@@H](C(N)=O)c2ccccc2)nc(N(C)C)c1C#N`, the GI50 was 6.14 µM and the TGI is above 100 µM.

On to `O=C(CNc1ccc2c(c1)C(=O)c1ccccc1C2=O)Nc1ccc2c(c1)C(=O)c1ccccc1C2=O`, for which the GI50 was 0.896 µM and the TGI was 2.48 µM.

For the compound `CC(C)(O)CS(=O)(=O)Nc1ccc2c(c1)CCN(C(=O)COc1cccnc1)C2`, the GI50 is above 100 µM and the TGI was above 100 µM.

Consider `O=C1/C(=C/c2ccccc2)CN(C(=O)c2cccnc2)C/C1=C\c1ccccc1`, for which the GI50 is 1.82 µM and the TGI turned out to be 4.24 µM.

With `CCn1c(CN2CCN(Cc3ccccc3)CC2)nc2cc(NC(=O)c3cccs3)ccc21`, the GI50 is 6.16 µM and the TGI amounted to 47.1 µM.

Turning to `C#CCC(Cc1cnc2nc(N)nc(N)c2n1)c1ccc(C(=O)N[C@@H](CCC(=O)O)C(=O)O)cc1` (some centres undefined), the GI50 is below 0.01 µM and the TGI was above 20.4 µM.

Take `O=C1NC(O)C(c2c[nH]c3ccccc23)=C1c1c[nH]c2ccccc12` (centres undefined): the GI50 was above 25 µM and the TGI was above 25 µM.

For `CC1=C2C[C@H]3[C@@H](CC[C@@H]4CC(NS(C)(=O)=O)CC[C@@]43C)[C@@H]2CC[C@@]2(C1)O[C@@H]1C[C@H](C)CN[C@H]1[C@H]2C` (some centres undefined), the GI50 is 2 µM and the TGI stood at 5.62 µM.

Regarding `Cc1cc2nc3c4cc(N)ccc4n(CCN(C)C)c3nc2cc1C`, the GI50 is 1.04 µM and the TGI is 2.79 µM.

On to `CCOc1ccc(-c2nonc2NC(=O)c2cccc(C)c2)cc1OCC`, for which the GI50 is 17.6 µM and the TGI came out at 48.8 µM.

Take `CCCc1cc2c(=O)c(C(=O)OC)c[nH]c2cc1N(CC)CC`: the GI50 was 24.4 µM and the TGI was above 100 µM.

As for `CC[C@H](Nc1nc(NCc2cnc(C)cc2C)c2ncn(C(C)C)c2n1)[C@@H](C)O`, the GI50 was 0.192 µM and the TGI came out at 0.47 µM.

In the case of `Fc1ccc2c(c1)c(-c1nc(-c3c[nH]c4ncccc34)cs1)cn2CCCN1CCCCC1`, the GI50 was 1.61 µM and the TGI came to 3.23 µM.

As for `CCC/C(=N/N=C(N)N)c1ccc(NC(=O)c2cc3cc(OC)ccc3[nH]2)cc1`, the GI50 is 2.34 µM and the TGI came to 12.1 µM.

On to `COc1cc(-c2nn(-c3cccc(NC(=O)Nc4cc(C(F)(F)F)cc(C(F)(F)F)c4)c3)cc2-c2ccncc2)ccc1Cl`, for which the GI50 is 0.236 µM and the TGI was 2.31 µM.

In the case of `Cc1c(-c2c(-c3ccc(F)o3)sc3ncnc(O[C@H](Cc4ccccc4OCc4ccnn4CC(F)(F)F)C(=O)O)c23)ccc(OCCN2CCN(C)CC2)c1Cl`, the GI50 was 0.0253 µM and the TGI stood at 0.105 µM.

With `C=CC(=O)N1CCN(c2nc(=O)n(-c3c(C)ccnc3C(C)C)c3nc(-c4c(O)cccc4F)c(F)cc23)[C@@H](C)C1`, the GI50 was 22 µM and the TGI is above 81.1 µM.

As for `CC(C)[C@H](CO)Nc1nc(Nc2ccc(C(=O)NCCNS(=O)(=O)c3cccc4c(N(C)C)cccc34)c(Cl)c2)c2ncn(C(C)C)c2n1`, the GI50 is 1.69 µM and the TGI was 6.75 µM.

Consider `O=C(/C=C/c1cccnc1)NCCCCC1CCCN(C(=O)c2ccccc2)C1` (centres undefined), for which the GI50 is 13.6 µM and the TGI was above 100 µM.

In the case of `COc1cc(C)c(Cl)cc1C1=NN(c2ccc(S(N)(=O)=O)cc2)C(/C=C/c2ccccc2)C1` (centres undefined), the GI50 was 2.14 µM and the TGI came to 5.79 µM.

Consider `C=C1C(=O)O[C@H]2[C@H]1CC/C(Cn1cc(-c3cc(C(F)(F)F)cc(C(F)(F)F)c3)nn1)=C\CC[C@@]1(C)O[C@@H]21`, for which the GI50 was 0.424 µM and the TGI is 1.75 µM.

As for `O=C1C(=O)c2ccccc2C(O)=C1CC=C(Br)Br`, the GI50 is 11.4 µM and the TGI came out at 41.8 µM.

On to `CCOC(=O)N1CCc2cc(OC)c(OC)c3c2c1cc1cc(OC)c(OC)cc13`, for which the GI50 is 3.17 µM and the TGI was above 100 µM.

On to `C=C(C)[C@@H]1CC[C@]2(COC)CC[C@]3(C)[C@H](CC[C@@H]4[C@@]5(C)CCCNC(C)(C)[C@@H]5CC[C@]43C)[C@@H]12`, for which the GI50 was 1.57 µM and the TGI is 3.18 µM.

With `NC(N)=N/N=C\c1cccc(OCc2ccccc2)c1`, the GI50 was 1.34 µM and the TGI is 2.73 µM.

On to `COC(=O)C1=C(C(=O)ON)C2C=CC1(C(Cc1ccccc1)Nc1ccccc1)O2` (centres undefined), for which the GI50 was 1.42 µM and the TGI was 2.8 µM.

Turning to `COc1ccc(/C=C\c2cc(OC)c(OC)c(OC)c2)cc1OC(=O)c1cccc(Cn2cc(CCOC(=O)[C@H](N)Cc3cn(C)c4ccccc34)nn2)c1`, the GI50 is below 0.01 µM and the TGI was determined as 3.57 µM.

As to `Cn1c(/C=C(\C#N)c2ccccc2)nc2c(N3CCOCC3)nc(Cl)nc21`, the GI50 was 0.688 µM and the TGI was 2.19 µM.

Regarding `COc1ccccc1CCN=C1NC(=O)/C(=C/c2ccc3ncccc3c2)S1`, the GI50 was 4.59 µM and the TGI was 16.4 µM.

Regarding `COC1CC2CCC(C)C(O)(O2)C(=O)C(=O)N2CCCCC2C(=O)OC(C(C)CC2CCC(O)C(OC)C2)CC(=O)C(C)C=C(C)C(O)C(OC)C(=O)C(C)CC(C)/C=C/C=C/C=C1C` (centres undefined), the GI50 was below 0.005 µM and the TGI was 7.35 µM.

Turning to `O=[N+]([O-])c1ccc(-c2nnc(SCc3ccc(O)c4ncccc34)o2)cc1`, the GI50 is 0.396 µM and the TGI was above 100 µM.

With `Ic1ccccc1-c1ccccc1`, the GI50 was 85 µM and the TGI is above 100 µM.

`COc1cc(NC2=C(Cl)C(=O)c3nc(C)ccc3C2=O)cc(OC)c1`: the GI50 was 1.23 µM and the TGI was 2.57 µM.

For the origin of these results see PubChem BioAssay (NCI).
